Experimental data: patent EP4603105A1, “PHARMACEUTICAL COMPOSITION CONTAINING CYCLIC COMPOUND HAVING SELECTIVE KRAS INHIBITORY EFFECT AGAINST HRAS AND NRAS” (CHUGAI SEIYAKU KABUSHIKI KAISHA, priority 2022, dated 2024)
Where a SMILES comes first, the peptide text is derived from it. Bridges are numbered along the chain shown (N, C = ends). [ ]: non-standard residue; d: D form. hPhe(3,5-F2-4-CF3) = N[C@@H](CCc1cc(F)c(C(F)(F)F)c(F)c1)C(=O)O; hPhe(3-Cl-4-CF3) = N[C@@H](CCc1ccc(C(F)(F)F)c(Cl)c1)C(=O)O; NPrPhe(4-CF3) = CCCN[C@@H](Cc1ccc(C(F)(F)F)cc1)C(=O)O; NMeGly(cPent) = CN[C@H](C(=O)O)C1CCCC1; Pro(4,4-F2) = O=C(O)[C@@H]1CC(F)(F)CN1; NMeD = CN[C@@H](CC(=O)O)C(=O)O; NMeL = CN[C@@H](CC(C)C)C(=O)O; αMeS = C[C@](N)(CO)C(=O)O; Ac5c = NC1(C(=O)O)CCCC1; NEtG = CCNCC(=O)O; Sar = CNCC(=O)O

How the values were obtained:
[1] = system: human lung cancer strain NCI-H441; assay type: cell-based
Outline: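 Readout: […] after the ATP-based reagent. Compound: serial dilutions in dimethyl sulfoxide.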

HRAS wild-type protein = HRAS wild-type protein (Homo sapiens, UniProt P01112); assay: Binding to HRAS by surface plasmon resonance (SPR), KD and KD ratio to KRAS
Outline: (§1)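 GDP-bound biotin-Avi RAS captured at ~100–300 RU, 30°C, pH 7.4 HBS containing 10 µM GDP, 10 mM MgCl2, 1 mM DTT, 0.01% Tween 20 and 4% DMSO. KD by 1:1 fitting.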

[2] = molecular target: GDP-bound NRAS wild-type protein (Homo sapiens, UniProt P01111); assay: Binding to NRAS by surface plasmon resonance (SPR), KD and KD ratio to KRAS
Outline: as §1

[3] = ratio of the KD value with respect to HRAS wild-type protein to the KD value with respect to KRAS
[4] = ratio of the KD value with respect to GDP-bound NRAS wild-type protein to the KD value with respect to KRAS
[5] = ratio of KD for HRAS wild-type protein to KD for KRAS
[6] = ratio of KD for GDP-bound NRAS wild-type protein to KD for KRAS

HRAS wild-type protein, sequence (P01112 whole entry): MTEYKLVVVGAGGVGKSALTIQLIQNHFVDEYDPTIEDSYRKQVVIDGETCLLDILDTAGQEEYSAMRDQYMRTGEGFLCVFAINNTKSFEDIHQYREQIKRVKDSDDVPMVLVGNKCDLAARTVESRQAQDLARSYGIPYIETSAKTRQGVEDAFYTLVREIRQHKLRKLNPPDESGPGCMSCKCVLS
GDP-bound NRAS wild-type protein, sequence (P01111 whole entry): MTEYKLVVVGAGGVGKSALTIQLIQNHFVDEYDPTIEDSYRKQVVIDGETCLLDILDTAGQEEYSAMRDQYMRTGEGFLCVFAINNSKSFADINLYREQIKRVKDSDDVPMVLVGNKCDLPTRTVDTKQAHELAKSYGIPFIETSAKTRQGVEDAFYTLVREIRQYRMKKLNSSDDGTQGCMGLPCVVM

SMILES	IC50 [1] [nM]	HRAS /KRAS (HRAS wild-type protein; [3])	NRAS /KRAS [2, 4]	HRAS /KRAS (HRAS wild-type protein; [5])	NRAS /KRAS [2, 6]
CCCN1C(=O)CN(C)C(=O)CN(C)C(=O)[C@H]([C@@H](C)CC)NC(=O)[C@H](CC(C)C)N(C)C(=O)C[C@@H](C(=O)N(C)C)N(C)C(=O)[C@H](C2CCCC2)N(C)C(=O)[C@](C)(COC)NC(=O)[C@@H]2CCCN2C(=O)[C@H](CCc2cc(F)c(C(F)(F)F)c(F)c2)NC(=O)CN(C)C(=O)[C@@H]1Cc1ccc(C(F)(F)F)cc1 [PP0741] ([NMeL]I[Sar][Sar][NPrPhe(4-CF3)][Sar][hPhe(3,5-F2-4-CF3)]P[αMeS](Me)[NMeGly(cPent)][NMeD]-NMe2; lactam N-11)	51.5	B (a compound having 3 or more and less than 10 is denoted as B)	B (a compound having 3 or more and less than 10 is denoted as B)	–	–
CCC[C@H]1C(=O)N[C@@H]([C@@H](C)CC)C(=O)N(C)CC(=O)N(C)[C@H]2C/C=C\CCN(C2=O)[C@@H](Cc2ccc(C(F)(F)F)cc2)C(=O)N(C)CC(=O)N[C@@H](CCc2ccc(C(F)(F)F)c(Cl)c2)C(=O)N2C[C@H](OCC)C[C@H]2C(=O)NC2(CC(C)(C)C2)C(=O)N(C)[C@@H](CC(C)(C)C)C(=O)N(C)[C@H](C(=O)N(C)C)CC(=O)N1C [PP2969]	2.7	–	–	A (a compound having 10 or more and less than 20 is denoted as A)	AA (a compound having 20 or more is denoted as AA)
CCCN1C(=O)CN(C)C(=O)CN(CC)C(=O)[C@H]([C@@H](C)CC)NC(=O)[C@H](CC(C)C)N(C)C(=O)C[C@@H](C(=O)N(C)C)NC(=O)[C@H](C2CCCC2)N(C)C(=O)C2(CCCC2)NC(=O)[C@@H]2CC(F)(F)CN2C(=O)[C@H](CCc2ccc(C(F)(F)F)c(Cl)c2)NC(=O)CN(C)C(=O)[C@@H]1Cc1ccc(C(F)(F)F)cc1 [PP0369] ([NMeL]I[NEtG][Sar][NPrPhe(4-CF3)][Sar][hPhe(3-Cl-4-CF3)][Pro(4,4-F2)][Ac5c][NMeGly(cPent)]D-NMe2; lactam N-11)	68.9	–	–	C (A compound having a KD ratio of 0.1 or more and less than 3 is denoted as C)	B (a compound having 3 or more and less than 10 is denoted as B)
CCO[C@@H]1C[C@H]2C(=O)NC3(CC(C)(C)C3)C(=O)N(C)[C@@H](C3CCCC3)C(=O)N(C)[C@H](C(=O)N3CCCCC3)CC(=O)N(C)[C@H]3CCC/C=C/c4ccc(cc4)C[C@@H](C(=O)N(C)CC(=O)N[C@@H](CCc4cc(F)c(C(F)(F)F)c(F)c4)C(=O)N2C1)N1CC/C=C\C[C@@H](C1=O)N(C)C(=O)CN(C)C(=O)[C@H]([C@@H](C)CC)NC3=O [PP2573]	10.1	–	–	A (a compound having 10 or more and less than 20 is denoted as A)	A (a compound having 10 or more and less than 20 is denoted as A)
CC[C@H](C)[C@@H]1NC(=O)[C@H](CC(C)C)N(C)C(=O)C[C@@H](C(=O)N2CCOCC2)N(C)C(=O)[C@H](C2CCCC2)NC(=O)C2(CCCC2)NC(=O)[C@@H]2CCCN2C(=O)[C@H](CCc2cc(F)c(C(F)(F)F)c(F)c2)NC(=O)CN(C)C(=O)[C@H](Cc2ccc(C(F)(F)F)cc2)N2CCCC[C@@H](C2=O)N(C)C(=O)CN(C)C1=O [PP0540]	766	B (a compound having 3 or more and less than 10 is denoted as B)	B (a compound having 3 or more and less than 10 is denoted as B)	–	–
CCO[C@@H]1C[C@H]2C(=O)N(C)C3(CCC3)C(=O)N(C)[C@@H](C(CC)CC)C(=O)N(C)[C@H](C(=O)N(C)C)CC(=O)N(C)[C@@H](COC)C(=O)N[C@@H]([C@@H](C)CC)C(=O)N(C)CC(=O)N(C)[C@H]3C/C=C\CCN(C3=O)[C@@H](CC3CCCCC3)C(=O)N(C)CC(=O)N[C@@H](CCc3ccc(C(F)(F)F)c(OC)c3)C(=O)N2C1 [PP2335]	64.2	A (a compound having 10 or more and less than 20 is denoted as A)	A (a compound having 10 or more and less than 20 is denoted as A)	–	–
